From US11612604B2, “Methods of treating cancer with PLK4 inhibitors” (LUDWIG INSTITUTE FOR CANCER RESEARCH LTD, priority 2017, dated 2023)

target: T1, PLK4 (Homo sapiens, UniProt O00444); experiment: Activity (IC50) of the Table 1 compounds as PLK4 inhibitors; type: biochemical; settings: Table 1, IC50 class
T1 sequence (O00444 1-970): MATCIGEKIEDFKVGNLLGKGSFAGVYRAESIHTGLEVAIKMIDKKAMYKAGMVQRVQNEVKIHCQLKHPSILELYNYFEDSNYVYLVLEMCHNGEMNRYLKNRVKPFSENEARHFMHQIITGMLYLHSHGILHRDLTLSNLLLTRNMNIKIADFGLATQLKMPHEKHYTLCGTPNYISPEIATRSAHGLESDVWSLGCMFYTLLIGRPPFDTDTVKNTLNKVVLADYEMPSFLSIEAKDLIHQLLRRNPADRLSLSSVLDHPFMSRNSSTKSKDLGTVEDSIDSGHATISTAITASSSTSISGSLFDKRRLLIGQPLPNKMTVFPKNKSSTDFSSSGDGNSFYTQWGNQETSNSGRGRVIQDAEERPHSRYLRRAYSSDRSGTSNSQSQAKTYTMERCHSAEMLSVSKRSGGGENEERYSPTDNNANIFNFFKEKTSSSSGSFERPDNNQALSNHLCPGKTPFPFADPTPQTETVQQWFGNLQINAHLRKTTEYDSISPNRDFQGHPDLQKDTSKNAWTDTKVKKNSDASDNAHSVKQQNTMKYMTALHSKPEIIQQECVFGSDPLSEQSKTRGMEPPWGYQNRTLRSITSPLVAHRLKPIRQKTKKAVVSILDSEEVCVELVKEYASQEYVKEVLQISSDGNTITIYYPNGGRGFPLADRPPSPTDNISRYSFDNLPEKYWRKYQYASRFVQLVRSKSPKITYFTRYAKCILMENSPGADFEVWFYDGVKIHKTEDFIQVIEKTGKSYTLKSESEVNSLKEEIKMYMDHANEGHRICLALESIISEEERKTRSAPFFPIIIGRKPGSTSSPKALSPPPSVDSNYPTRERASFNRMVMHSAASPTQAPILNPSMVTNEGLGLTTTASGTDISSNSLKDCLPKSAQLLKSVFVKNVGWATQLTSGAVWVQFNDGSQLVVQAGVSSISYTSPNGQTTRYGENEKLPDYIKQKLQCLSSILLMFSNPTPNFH

IC50, < 100 nM:
Cc1cc(Nc2nc(Sc3ccc(NC(=O)C4CC4)cc3)nc(C)c2C)n[nH]1
COc1c(Nc2cc(C)[nH]n2)nc(Sc2ccc(NC(=O)C3CC3)cc2)nc1N1CCN(C(C)=O)CC1
CCN1CCN(c2nc(Sc3ccc(NC(=O)C4CC4)cc3)nc(Nc3cc(C)[nH]n3)c2OC)CC1
COCCN1CCN(c2nc(Sc3ccc(NC(=O)C4CC4)cc3)nc(Nc3cc(C)[nH]n3)c2OC)CC1
COc1c(Nc2cc(C)[nH]n2)nc(Sc2ccc(NC(=O)C3CC3)cc2)nc1N1CCN(CCN(C)C)CC1
Cc1cc(Nc2nc(Sc3ccc(NC(=O)C4CC4)cc3)nc(N(C)C(C)C)c2C)n[nH]1
COCCNc1nc(Sc2ccc(NC(=O)C3CC3)cc2)nc(Nc2cc(C)[nH]n2)c1C
COc1c(Nc2cc(C)[nH]n2)nc(Sc2ccc(S(=O)(=O)C(C)(C)c3c(F)c(F)cc(F)c3F)cc2F)nc1N1CCC(NC(C)=O)CC1
COc1c(Nc2cc(C)[nH]n2)nc(Sc2ccc(S(=O)(=O)C(C)(C)c3c(F)c(F)cc(F)c3F)cc2F)nc1N1CC[C@H](N(C)C)C1
COc1c(Nc2cc(C)[nH]n2)nc(Sc2ccc(S(=O)(=O)C(C)(C)c3c(F)c(F)cc(F)c3F)cc2F)nc1N1CCC(CC(=O)N(C)C)CC1
COc1c(Nc2cc(C)[nH]n2)nc(Sc2ccc(S(=O)(=O)C(C)(C)c3c(F)c(F)cc(F)c3F)cc2F)nc1N1CC[C@@H](N(C)C)C1
COc1c(Nc2cc(C)[nH]n2)nc(Sc2ccc(S(=O)(=O)C(C)(C)c3c(F)c(F)c(F)c(F)c3F)cc2F)nc1N1CCC(N(C)C)CC1
COc1c(Nc2cc(C)[nH]n2)nc(Sc2ccc(S(=O)(=O)C(C)(C)c3c(F)c(F)c(F)c(F)c3F)cc2F)nc1N1CCC(CCN(C)C)CC1
COc1c(Nc2cc(C)[nH]n2)nc(Sc2ccc(S(=O)(=O)C(C)(C)c3cccc([N+](=O)[O-])c3F)cc2F)nc1N1CCC(O)C1 (stereo not drawn)
COc1c(Nc2cc(C)[nH]n2)nc(Sc2ccc(S(=O)(=O)C(C)(C)c3c(F)c(F)c(F)c(F)c3F)cc2F)nc1N1CCN(CCN(C)C)CC1
COc1c(Nc2cc(C)[nH]n2)nc(Sc2ccc(S(=O)(=O)C(C)(C)c3c(F)c(F)cc(F)c3F)cc2F)nc1N1CCC(OC(C)=O)CC1
COc1ccc(CS(=O)(=O)c2ccc(Sc3nc(Nc4cc(C)[nH]n4)c(OC)c(N4CCOCC4)n3)c(F)c2)cc1
COc1ccc(CS(=O)(=O)c2ccc(Sc3nc(Nc4cc(C)[nH]n4)c(OC)c(N4CCCCC4)n3)c(F)c2)cc1
COc1c(Nc2cc(C)[nH]n2)nc(Sc2ccc(S(=O)(=O)C(C)(C)c3cccc([N+](=O)[O-])c3F)cc2F)nc1N1CCC(N(C)C(C)=O)CC1
COc1c(Nc2cc(C)[nH]n2)nc(Sc2ccc(S(=O)(=O)C(C)(C)c3c(F)c(F)cc(F)c3F)cc2F)nc1N1CCC(N(C)C(C)=O)CC1
COc1ccc(CS(=O)(=O)c2ccc(Sc3nc(Nc4cc(C)[nH]n4)c(OC)c(N4CCOCC4)n3)cc2)cc1
COc1ccc(CS(=O)(=O)c2ccc(Sc3nc(Nc4cc(C)[nH]n4)c(OC)c(N4CCCCC4)n3)cc2)cc1
COc1c(Nc2cc(C)[nH]n2)nc(Sc2ccc(S(=O)(=O)C(C)(C)c3c(F)c(F)cc([N+](=O)[O-])c3F)cc2F)nc1N1CCN(CCN(C)C)CC1
COc1c(Nc2cc[nH]n2)nc(Sc2ccc(S(=O)(=O)Cc3cccc([N+](=O)[O-])c3F)cc2F)nc1N1CCOCC1
COc1c(Nc2cc[nH]n2)nc(Sc2ccc(S(=O)(=O)Cc3cccc([N+](=O)[O-])c3F)cc2F)nc1N1CCCCC1
CNC(=O)CC1CCN(c2nc(Sc3ccc(S(=O)(=O)C(C)(C)c4cccc([N+](=O)[O-])c4)cc3F)nc(Nc3cc(C)[nH]n3)c2OC)CC1
COc1c(Nc2cc(C)[nH]n2)nc(Sc2ccc(S(=O)(=O)C(C)(C)c3cccc([N+](=O)[O-])c3F)cc2F)nc1N1CCC(N)CC1
COc1c(Nc2cc(C)[nH]n2)nc(Sc2ccc(S(=O)(=O)C(C)(C)c3cccc([N+](=O)[O-])c3F)cc2F)nc1N1CCC(CC(N)=O)CC1
CNC1CCN(c2nc(Sc3ccc(S(=O)(=O)C(C)(C)c4cccc([N+](=O)[O-])c4F)cc3F)nc(Nc3cc(C)[nH]n3)c2OC)CC1
COc1c(Nc2cc(C)[nH]n2)nc(Sc2ccc(S(=O)(=O)C(C)(C)c3cccnc3)cc2)nc1N1CCN(CCN(C)C)CC1
COc1c(Nc2cc(C)[nH]n2)nc(Sc2ccc(S(=O)(=O)C(C)(C)c3cccs3)cc2)nc1N1CCN(CCN(C)C)CC1
COc1c(Nc2cc(C)[nH]n2)nc(Sc2ccc(S(=O)(=O)C(C)(C)C3CC3)cc2)nc1N1CCN(CCN(C)C)CC1
COc1c(Nc2cc(C)[nH]n2)nc(Sc2ccc(S(=O)(=O)Cc3cccc([N+](=O)[O-])c3F)cc2F)nc1N1CCNCC1
COc1c(Nc2cc(C)[nH]n2)nc(Sc2ccc(S(=O)(=O)C(C)(C)c3cccc([N+](=O)[O-])c3)cc2F)nc1N1CCC(CCNC(C)C(F)(F)F)CC1 (stereo not drawn)
COc1c(Nc2cc(C)[nH]n2)nc(Sc2ccc(S(=O)(=O)C(C)(C)c3ccccn3)cc2)nc1N1CCN(CCN(C)C)CC1
COc1c(Nc2cc(C)[nH]n2)nc(Sc2ccc(S(=O)(=O)C(C)(C)c3nccs3)cc2)nc1N1CCN(CCN(C)C)CC1
COc1c(Nc2cc(C)[nH]n2)nc(Sc2ccc(S(=O)(=O)C(C)(C)c3cnccn3)cc2)nc1N1CCN(CCN(C)C)CC1
COc1c(Nc2cc(C)[nH]n2)nc(Sc2ccc(S(=O)(=O)C(C)(C)c3ccncn3)cc2)nc1N1CCN(CCN(C)C)CC1
COc1c(Nc2cc(C)[nH]n2)nc(Sc2ccc(S(=O)(=O)Cc3ccccc3)cc2)nc1N1CCN(Cc2ccncc2)CC1
COc1c(Nc2cc(C)[nH]n2)nc(Sc2ccc(S(=O)(=O)Cc3cccc(C#N)c3)cc2)nc1N1CCN(CCN(C)C)CC1
COc1ccccc1CS(=O)(=O)c1ccc(Sc2nc(Nc3cc(C)[nH]n3)c(OC)c(N3CCN(CCN(C)C)CC3)n2)cc1
COc1c(Nc2cc(C)[nH]n2)nc(Sc2ccc(S(=O)(=O)Cc3cccc(C)c3)cc2)nc1N1CCN(CCN(C)C)CC1
COc1cccc(CS(=O)(=O)c2ccc(Sc3nc(Nc4cc(C)[nH]n4)c(OC)c(N4CCN(CCN(C)C)CC4)n3)cc2)c1
CCOc1c(Nc2cc(C)[nH]n2)nc(Sc2ccc(NC(=O)C3CC3)cc2)nc1N1CCC(O)CC1
COc1c(Nc2cc(C)[nH]n2)nc(Sc2ccc(NC(C)=O)cc2)nc1N1CCC(O)CC1C (stereo not drawn)
COc1c(Nc2cc(C)[nH]n2)nc(Sc2ccc(NC(C)=O)cc2)nc1N1CCN(CCN2CCOCC2)CC1
CC(=O)Nc1ccc(Sc2nc(Nc3cc(C)[nH]n3)c(C)c(N3CCN(CCN4CCCCC4)CC3)n2)cc1
CC(=O)Nc1ccc(Sc2nc(Nc3cc(C)[nH]n3)c(C)c(N3CCC(OCCN(C)C)CC3)n2)cc1
CC(=O)Nc1ccc(Sc2nc(Nc3cc(C)[nH]n3)c(C)c(N3CCOC[C@@H]3C)n2)cc1
COc1c(Nc2cc(C)[nH]n2)nc(Sc2ccc(NC(C)=O)cc2)nc1N1CCN(CCN2CCCCC2)CC1
COc1c(Nc2cc(C)[nH]n2)nc(Sc2ccc(NC(C)=O)cc2)nc1N1CCN(CCCN(C)C)CC1
COc1c(Nc2cc(C)[nH]n2)nc(Sc2ccc(NC(C)=O)cc2)nc1N1CCC(O)C1 (stereo not drawn)
CSc1nc(Nc2cc(C)[nH]n2)c(C)c(N2CCN(CCN(C)C)CC2)n1
COc1c(Nc2cc(C)[nH]n2)nc(Sc2ccc(NC(=O)C(F)(F)F)cc2)nc1N1CCN(CCN(C)C)CC1
CNC(=O)Nc1ccc(Sc2nc(Nc3cc(C)[nH]n3)c(OC)c(N3CCN(CCN(C)C)CC3)n2)cc1
CC(=O)Nc1ccc(Sc2nc(Nc3cc(C)[nH]n3)c(C)c(N3CCOC[C@H]3C)n2)cc1
COc1c(Nc2cc(C)[nH]n2)nc(Sc2ccc(NC(C)=O)cc2)nc1N1CCN(CCNC(C)=O)CC1
CNCCN1CCN(c2nc(Sc3ccc(NC(C)=O)cc3)nc(Nc3cc(C)[nH]n3)c2OC)CC1
COc1c(Nc2cc(C)[nH]n2)nc(Sc2ccc(S(=O)(=O)Cc3ccccc3F)cc2)nc1N1CCOCC1
COc1c(Nc2cc(C)[nH]n2)nc(Sc2ccc(S(=O)(=O)Cc3ccccc3[N+](=O)[O-])cc2)nc1N1CCN(CCN(C)C)CC1
COc1c(Nc2cc(C)[nH]n2)nc(Sc2ccc(NC(C)=O)cc2)nc1N1CCOC[C@@H]1C
COc1c(Nc2cc(C)[nH]n2)nc(Sc2ccc(NC(C)=O)cc2)nc1N1CCOC[C@H]1C
COc1c(Nc2cc(C)[nH]n2)nc(Sc2ccc(NC(N)=O)cc2)nc1N1CCN(CCN(C)C)CC1
